Assay results reported in ChEMBL document CHEMBL1124980, “2,4-Dihydro-3H-1,2,4-triazol-3-ones as anticonvulsant agents” (J Med Chem, 1990).
Calls of active or inactive are those of the source. No cut-off for these calls is given here.

Tests used:
[1] = system: Mus musculus; assay: Tested for inhibition of pentylenetetrazole induced seizures in mice; Value is 1/16 of the LD50 range; format: functional
[2] = species: Mus musculus; assay: Tested for inhibition of pentylenetetrazole induced seizures in mice.; format: functional
[3] = species: Mus musculus; assay: Tested for inhibition of strychnine-induced seizures in mice.; format: functional
[4] = system: Gerbillinae; assay: Tested for its effect on Hypoxia induced neuronal damage; format: functional
[5] = species: Mus musculus; assay: Tested for inhibition of bicuculline induced seizures in mice.; format: functional
[6] = species: Mus musculus; assay: Tested for inhibition of quinoline-induced seizures in mice.; format: functional
[7] = species: Mus musculus; assay: Tested for inhibition of maximal electroshock -induced seizures in mice.; format: functional
[8] = system: Gerbillinae; assay: Tested for its effect on hippocampal neuronal damage in gerbils activity; format: functional
[9] = (§1) Tested for acute toxicity in mice after intraperitoneal administration; Value ranges from 200-400 mg/kg; format: organism-based; conditions: mouse, in vivo, ip
[10] = target: Glutamate NMDA receptor; assay: Inhibition of [3H]CPP binding to N-methyl-D-aspartate glutamate receptor of rat cortical or hippocampal membranes; format: cell membranes, Membrane
[11] = target: GABA-A receptor; anion channel; assay: In vitro binding affinity for GABA-A receptor in rat cortical or hippocampal membranes using [3H]flunitrazepam
[12] = species: Mus musculus; assay: Tested for inhibition of 3-mercaptopropanoic acid induced seizures in mice.; format: functional
[13] = system: Mus musculus; assay: Tested for inhibition of maximal electroshock -induced seizures in mice; Value is 1/8 of the LD50 range; format: functional
[14] = species: Mus musculus; assay: Tested for inhibition of maximal electroshock -induced seizures in mice; Value ranges from 13-25; format: functional
[15] = Tested for acute toxicity in mice after intraperitoneal administration; format: organism-based; conditions: mouse, in vivo, ip
[16] = Tested for acute toxicity in mice after intraperitoneal administration; Value ranges from 100-200 mg/kg; format: organism-based; conditions: mouse, in vivo, ip
[17] = Tested for acute toxicity in mice after intraperitoneal administration; Value ranges from 400-800; format: organism-based; conditions: mouse, in vivo, ip
[18] = system: Mus musculus; assay: Tested for inhibition of pentylenetetrazole induced seizures in mice; Value is 1/8 of the LD50 range; format: functional
[19] = system: Mus musculus; assay: as §1; format: functional; conditions: ip
[20] = Tested for acute toxicity in mice after intraperitoneal administration; Value ranges from 400-800 mg/kg; format: organism-based; conditions: mouse, in vivo, ip
[21] = system: Mus musculus; assay: Tested for inhibition of pentylenetetrazole induced seizures in mice; Value is 1/4 of the LD50 range; format: functional
[22] = system: Mus musculus; assay: Tested for inhibition of pentylenetetrazole induced seizures in mice; Value is 1/8 of the LD50; format: functional
[23] = system: Mus musculus; assay: Tested for inhibition of maximal electroshock -induced seizures in mice; Value is 1/4 of the LD50 range; format: functional
[24] = system: Mus musculus; assay: Tested for inhibition of quinoline-induced seizures in mice; g = maximum effect, 50% at 20 mg/kg; format: functional, organism-based; design: dose 20 mg/kg
[25] = system: Mus musculus; assay: Tested for inhibition of maximal electroshock -induced seizures in mice; Value is 1/16 of the LD50; format: functional
[26] = system: Mus musculus; assay: Tested for inhibition of pentylenetetrazole induced seizures in mice; Value is 1/16 of the LD50; format: functional
[27] = species: Mus musculus; assay: Tested for inhibition of pentylenetetrazole induced seizures in mice; Value ranges from 100-200; format: functional

## CCn1c(-c2ccc(Cl)cc2)nn(C)c1=O
[1]
  Activity: 20 mg/kg
[2]
  ED50: 17 mg/kg
[3]
  ED50: ~101 mg/kg
[4]
  Damage score: 0.97
[5]
  ED50: 15 mg/kg
[6]
  ED50: 26 mg/kg
[7]
  ED50: 48 mg/kg
[8]
  Damage score: 0.33
[9]
  LD50: 400 mg/kg
[10]
  IC50: > 100 µM
[11]
  IC50: > 100 µM
[12]
  ED50: 31 mg/kg
[13]
  Activity: 50 mg/kg

## CN[C@H](CC(=O)O)C(=O)O [N-METHYL-D-ASPARTIC ACID (NMDA)]
[10]
  IC50: 6 µM

## NC(=O)N1c2ccccc2C=Cc2ccccc21 [CARBAMAZEPINE]
[2]
  ED50: > 200 mg/kg
[3]
  ED50: 61 mg/kg
[6]
  ED50: 25 mg/kg
[14]
  ED50: 25 mg/kg
[12]
  ED50: 86 mg/kg

## COc1nnc(-c2ccccc2)n1C
[15]
  LD50: > 800 mg/kg

## Cn1nc(-c2ccc(Cl)c(Cl)c2)n(C)c1=O
[2]
  Activity: 50 mg/kg
[7]
  Activity: 50 mg/kg
[16]
  LD50: 200 mg/kg

## Cn1nc(-c2ccccc2)nc1O
[17]
  LD50: 800 mg/kg
[18]
  Activity: 100 mg/kg

## CCn1c(O)nnc1-c1ccc(Cl)cc1
[1]
  Activity: 25 mg/kg
[4]
  Damage score: 2.64
[6]
  ED50: ~51 mg/kg
[8]
  Damage score: 0.33
[19]
  LD50: 400 mg/kg
[10]
  IC50: > 100 µM
[11]
  IC50: > 100 µM

## Cn1c(O)nnc1-c1ccccc1Cl
[1]
  Activity: 50 mg/kg
[4]
  Damage score: 2.95
[6]
  ED50: ~65 mg/kg
[8]
  Damage score: 0.22
[10]
  IC50: > 100 µM
[17]
  LD50: 800 mg/kg
[11]
  IC50: > 100 µM
[13]
  Activity: 100 mg/kg

## CCCn1nc(-c2ccc(Cl)cc2)n(CC)c1=O
[20]
  LD50: 800 mg/kg

## CCCCOc1cc(-c2nnc(O)n2C)ccc1OC
[16]
  LD50: 200 mg/kg

## CCn1c(-c2ccccc2)nn(C)c1=O
[20]
  LD50: 800 mg/kg
[21]
  Activity: 200 mg/kg
[13]
  Activity: 100 mg/kg

## CCn1c(O)nnc1-c1ccccc1
[15]
  LD50: > 800 mg/kg
[22]
  Activity: >100 mg/kg

## CCC1(c2ccccc2)C(=O)NC(=O)NC1=O [PHENOBARBITAL]
[2]
  ED50: 24 mg/kg
[3]
  ED50: 52 mg/kg
[5]
  ED50: 9 mg/kg
[6]
  ED50: 52 mg/kg
[7]
  ED50: 20 mg/kg
[12]
  ED50: 30 mg/kg

## CCn1nc(-c2ccccc2)n(C)c1=O
[20]
  LD50: 800 mg/kg
[18]
  Activity: 100 mg/kg

## CCn1c(O)nnc1-c1cccc(C(F)(F)F)c1
[9]
  LD50: 400 mg/kg
[18]
  Activity: 50 mg/kg

## Cn1c(O)nnc1-c1ccccc1F
[1]
  Activity: >50 mg/kg
[15]
  LD50: > 800 mg/kg

## CCn1nc(-c2ccc(Cl)cc2)n(C)c1=O
[1]
  Activity: 50 mg/kg
[20]
  LD50: 800 mg/kg

## CCn1nc(-c2ccc(Cl)cc2)n(CC)c1=O
[9]
  LD50: 400 mg/kg
[13]
  Activity: 50 mg/kg
[18]
  Activity: 50 mg/kg

## CCCCOc1cc(-c2nn(C)c(=O)n2C)ccc1OC
[20]
  LD50: 800 mg/kg
[10]
  IC50: > 100 µM
[11]
  IC50: 33.2 µM
[18]
  Activity: 100 mg/kg

## Cn1nc(-c2ccccc2Cl)n(C)c1=O
[20]
  LD50: 800 mg/kg
[23]
  Activity: 200 mg/kg
[18]
  Activity: 50 mg/kg

## Cn1nc(-c2ccccc2F)n(C)c1=O
[20]
  LD50: 800 mg/kg
[18]
  Activity: 100 mg/kg

## COc1ccc(-c2nn(C)c(=O)n2C)cc1
[20]
  LD50: 800 mg/kg

## Cc1ccc(-c2nn(C)c(=O)n2C)cc1
[20]
  LD50: 800 mg/kg

## CCn1c(-c2cccc(C(F)(F)F)c2)nn(C)c1=O
[1]
  Activity: 50 mg/kg
[20]
  LD50: 800 mg/kg
[10]
  IC50: > 100 µM
[11]
  IC50: > 100 µM
[13]
  Activity: 100 mg/kg

## Cn1nc(-c2ccccc2)n(C)c1=S
[16]
  LD50: 200 mg/kg

## Cn1c(O)nnc1-c1ccc(Cl)c(Cl)c1
[9]
  LD50: 400 mg/kg
[10]
  IC50: > 100 µM
[21]
  Activity: 100 mg/kg
[11]
  IC50: > 100 µM
[23]
  Activity: 100 mg/kg

## O=C1NC(=O)C(c2ccccc2)(c2ccccc2)N1 [PHENYTOIN]
[2]
  ED50: > 32 mg/kg
[24]
  ED50: Active
[3]
  ED50: > 200 mg/kg
[5]
  ED50: > 200 mg/kg
[7]
  ED50: 26 mg/kg
[12]
  ED50: 89 mg/kg

## Cn1nc(-c2ccccc2)n(C)c1=O
[20]
  LD50: 800 mg/kg
[18]
  Activity: 100 mg/kg

## Cn1c(O)nnc1-c1ccc(F)cc1
[25]
  Activity: >50 mg/kg
[15]
  LD50: > 800 mg/kg
[10]
  IC50: > 100 µM
[11]
  IC50: > 100 µM
[26]
  Activity: >50 mg/kg

## Cn1c(O)nnc1-c1ccccc1
[1]
  Activity: >50 mg/kg
[15]
  LD50: > 800 mg/kg
[10]
  IC50: > 100 µM
[11]
  IC50: > 100 µM
[13]
  Activity: >100 mg/kg

## Cn1nc(-c2ccc(Cl)cc2)n(C)c1=O
[1]
  Activity: 50 mg/kg
[20]
  LD50: 800 mg/kg
[10]
  IC50: > 100 µM
[11]
  IC50: > 100 µM
[13]
  Activity: 100 mg/kg

## O=C1CN=C(c2ccccc2Cl)c2cc([N+](=O)[O-])ccc2N1 [CLONAZEPAM]
[2]
  ED50: 0.06 mg/kg
[3]
  ED50: 2 mg/kg
[5]
  ED50: 0.07 mg/kg
[6]
  ED50: < 8 mg/kg
[7]
  ED50: 50 mg/kg
[12]
  ED50: 0.2 mg/kg

## CCCC(CCC)C(=O)O [VALPROIC ACID]
[3]
  ED50: > 200 mg/kg
[5]
  ED50: 28 mg/kg
[6]
  ED50: > 256 mg/kg
[7]
  ED50: > 200 mg/kg
[27]
  ED50: 200 mg/kg

## Cn1c(O)nnc1-c1ccncc1
[15]
  LD50: > 800 mg/kg
[10]
  IC50: > 100 µM
[11]
  IC50: > 100 µM

## CCn1nc(-c2cccs2)n(C)c1=O
[20]
  LD50: 800 mg/kg

## Cn1nc(-c2cccs2)n(C)c1=O
[20]
  LD50: 800 mg/kg

## COc1ccc(-c2nnc(O)n2C)cc1
[15]
  LD50: > 800 mg/kg

## Cn1nc(-c2ccc(F)cc2)n(C)c1=O
[20]
  LD50: 800 mg/kg
[21]
  Activity: 200 mg/kg
[23]
  Activity: 200 mg/kg

## Cn1c(O)nnc1-c1cccs1
[9]
  LD50: 400 mg/kg
[10]
  IC50: > 100 µM
[11]
  IC50: > 100 µM

## Cn1c(O)nnc1-c1ccc(Cl)cc1
[25]
  Activity: >50 mg/kg
[15]
  LD50: > 800 mg/kg
[10]
  IC50: > 100 µM
[11]
  IC50: > 100 µM
[26]
  Activity: >50 mg/kg

## Cc1ccc(-c2nnc(O)n2C)cc1
[15]
  LD50: > 800 mg/kg
[22]
  Activity: >100 mg/kg

## Oc1n[nH]c(-c2ccccc2)n1
[15]
  LD50: > 800 mg/kg

## Cl.c1ccc(C2(N3CCCCC3)CCCCC2)cc1 [PHENCYCLIDINE HYDROCHLORIDE]
[4]
  Damage score: <1.14
[8]
  Damage score: 1.06
